From PMC9246256, “Structure-based optimization of type III indoleamine 2,3-dioxygenase 1 (IDO1) inhibitors” (Journal of Enzyme Inhibition and Medicinal Chemistry, 2022)
Several values for one entry are separate records, joined by “and”; a condition that tells them apart may be missing. Identical values can stand only once.

Tests used:
[1] = molecular target: T1, purified recombinant IDO1 (Homo sapiens, UniProt P14902); experiment: Enzymatic IDO1 inhibition assay (ascorbate/methylene blue reduction system, HPLC detection of kynurenine); type: biochemical; settings: for IC50: enzymatic, L-Trp 100 µM, 0.01% Triton X-100, 5% DMSO, 20 min at room temperature, pH 6.5, duplicates, read-out: IC50 [ μ M] (SD); for LE [kcal/mol/HA]: ligand efficiency, LE = -RT log(IC50)/number of heavy atoms, from enzymatic IC50
T1 construct: Full-length human IDO1 gene was cloned into the pET-28a vector; inferred from pET-28a vector and HisTrap purification; made in house; host or cells: E. coli Rosetta (DE3)
T1 sequence (P14902 whole entry): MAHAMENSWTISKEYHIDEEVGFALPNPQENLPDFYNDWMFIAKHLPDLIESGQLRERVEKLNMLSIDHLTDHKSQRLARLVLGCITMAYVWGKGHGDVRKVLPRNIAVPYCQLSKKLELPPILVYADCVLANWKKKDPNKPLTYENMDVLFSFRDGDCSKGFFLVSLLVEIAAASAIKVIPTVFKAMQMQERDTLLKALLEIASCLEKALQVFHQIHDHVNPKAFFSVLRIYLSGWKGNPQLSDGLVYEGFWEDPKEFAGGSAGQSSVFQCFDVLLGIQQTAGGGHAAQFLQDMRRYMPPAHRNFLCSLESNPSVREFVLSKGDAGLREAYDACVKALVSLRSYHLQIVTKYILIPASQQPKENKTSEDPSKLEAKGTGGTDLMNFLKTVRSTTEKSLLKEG
Method: Enzymatic IC50 values were measured with the ascorbate/methylene blue reduction system[85] in presence of a non-ionic detergent to reduce compound aggregation as described before[28]. Kynurenine and L-Trp concentrations were determined by HPLC through UV detection.
Full-length human IDO1 gene was cloned into the pET-28a vector and expressed in E. coli Rosetta (DE3) cells. […] The culture was harvested and frozen at −80 °C until further use. The frozen cells were lysed by sonication in 20 mM Tris pH 7, 400 mM NaCl, 1 mM MgCl2, 20 mM imidazole, 1 mM DTT, 0.5 mg/mL Lysozyme and Protease inhibitor. After centrifugation, the supernatant was loaded into a HisTrap HP column pre-equilibrated with buffer containing 20 mM Tris pH 7, 500 mM NaCl and 20 mM imidazole, and eluted with the same buffer containing 500 mM imidazole. Fractions containing IDO1 were pooled, concentrated, and injected on a size exclusion chromatography column (HiLoad Superdex S75 16/60) to increase purity. hIDO1 fractions were concentrated to 20 mg/mL in 20 mM Tris pH 7 and 150 mM NaCl.
The enzymatic inhibition assays were performed as described by Takikawa et al.[130] with some modifications. Briefly, the reaction mixture (100 µL) contained potassium phosphate buffer (100 mM, pH 6.5) ascorbic acid (20 mM), catalase (400 units/mL), methylene blue (10 µM), purified recombinant IDO1 (2.5 ng/µL), L-Trp (100 µM), Triton X-100 (0.01%) and DMSO (5 µL). The inhibitors were serially diluted 3-fold for at least 8 different concentrations. After incubation at room temperature for 20 min, the reaction was stopped in its linear phase by addition of trichloroacetic acid solution (40 mL, 30% w/v), and the samples were incubated at 50 °C for 30 min. After centrifugation, 80 µl of supernatant from each well were used for HPLC analysis. The mobile phase for HPLC analysis was composed of 50% (v/v) of methanol and 50% of sodium citrate buffer (40 mM, pH 2.4) containing 400 µM sodium dodecyl sulphate. […] All assays were carried out in duplicates. The activity (Act) of each compound was calculated as Act = RT log(IC50) in analogy to the relation between the binding free energy and the Ki value. The ligand efficiency (LE) was calculated as LE = −Act/NHA, where NHA is the number of non-hydrogen atoms (heavy atoms) in the compound.

[2] = molecular target: T2, hIDO1 (Homo sapiens, UniProt P14902); experiment: Cellular hIDO1 inhibition (kynurenine production) in transiently transfected HEK 293 T cells; type: cell-based
T2 construct: The full ORF of hIDO1 was cloned into the mammalian expression vector pcDNA6/myc-His; myc-His (vector-encoded); host or cells: HEK 293 T
T2 sequence (P14902 whole entry): as above
Method: (§1) We tested the cellular hIDO1 inhibitory activity and toxicity of 30 active compounds at a single concentration (Figure 6 and Table 8). As some of the aniline derivatives reacted with Ehrlich’s reagent (p-dimethylaminobenzaldehyde, p-DMAB) used to quantify kynurenine, the kynurenine content of these samples was determined by HPLC. To be able to detect also weak inhibition, compounds were tested at the high concentration of 200 µM (Figure 6A and B, filled bars), except for less soluble compounds (52, 148, 149 and 153), which were tested at a concentration of 50 µM (Figure 6A and B, empty bars).
The cDNA encoding hIDO1 (NCBI, NM 0021464.3) was purchased from Origene as pCMV6-Entry vector (RC206592). The full ORF of hIDO1 was cloned into the mammalian expression vector pcDNA6/myc-His from Invitrogen. Human embryonic kidney 293 T (HEK 293 T) cells were transiently transfected with the plasmid construct encoding hIDO1. A 75 cm^2 flask containing HEK 293 T cells at a confluency of 70% was transfected with jetPEI DNA transfection reagent (Polyplus-transfection), according to manufacturer’s protocol. A total of 20 µg of pcDNA-IDO1 along with 5 µg of pcDNA-GFP plasmid were used for the transfection; GFP was used to evaluate transfection efficiency prior to the cellular assays. 16–18 h post-transfection the 293 T cells were detached with trypsin, centrifuged, and re-suspended in 25 mL of DMEM medium without phenol red, supplemented with penicillin and streptomycin, 10% foetal bovine serum and 1 mM pyruvate (Gibco). Subsequently, 100 µL of cells were distributed to each well of two 96-well round-bottom plates that had been pre-loaded with 100 µL DMEM and the small organic test molecule in DMSO (for a final DMSO concentration of 2%). DMEM medium contains 78 µM L-Trp and was supplemented with 500 µM of L-Trp. Cells transfected with hIDO1 were incubated for 7 h at 37 °C in a CO2 incubator. The reaction was stopped in its linear phase by adding trichloroacetic acid (TCA) to the medium at a final concentration of 4%. Plates were centrifuged for 15 min at 4,000 rpm. 100 µL of supernatant was added to 100 µL of 2% (w/v) DMAB in glacial acetic acid. After 10 min the absorbance was measured at a wavelength of 480 nm to detect kynurenine formation. Alternatively, kynurenine content was determined by HPLC as done for the enzymatic assay.

[3] = test system: HEK 293 T cells; experiment: Cell viability / cellular toxicity (DAPI staining, cytometry); type: cell-based, human; settings: compound 200 µM, 7 h
Method: as §1
Following DMSO (negative control) or inhibitor treatments, apoptotic cells were detected by 4′,6-diamidino-2-phenylindole (DAPI) staining. Briefly, after 7 h of incubation, cells were washed with PBS, resuspended in PBS with 1 µg/mL DAPI and immediately analysed using a BD LSR II cytometer. A 405 nm laser with 450/50 nm bandpass filter was used to collect data.

SMILES | IC50 [1] | melting point [°C] | LE [kcal/mol/HA] [1] [kcal/mol/HA] | inhibition at 200 µM [2] [%] | Tox. [%] [3]
O=C(c1ccccn1)c1cnn[nH]1 [Compound 120, Pyridin-2-yl(1H-1,2,3-triazol-5-yl)methanone] | > 1000 µM | 161 to 163 | – | – | –
Clc1ccc(-c2c[nH]nn2)cc1Cl [Compound 49, 4–(3,4-Dichlorophenyl)-1,2,3-triazole] | 51 µM | – | 0.45 | 65 | 0 (0) %
Nc1c(Cl)cccc1-c1nc[nH]n1 [Compound 141, 2-Chloro-6-(1H-1,2,4-triazol-3-yl)aniline] | 29 µM | – | 0.48 | 82 | 13 (4) %
Clc1cc(Cl)c(-c2c[nH]nn2)c(Cl)c1 [Compound 53, 4–(2,4,6-Trichlorophenyl)-1,2,3-triazole] | > 500 µM | 236 to 238 | – | – | –
CCCc1ccc(O)c(-c2cnn[nH]2)c1 [Compound 37, 4-Propyl-2-(1H-1,2,3-triazol-5-yl)phenol] | 0.75 µM | 138 to 140 | 0.56 | – | –
O=C(c1cnn[nH]1)c1ccco1 [Compound 114, Furan-2-yl(1H-1,2,3-triazol-5-yl)methanone] | 230 µM | – | 0.41 | 20 | 0 (0) %
O=C(c1cnn[nH]1)c1cccs1 [Compound 116, Thiophen-2-yl(1H-1,2,3-triazol-5-yl)methanone] | 17 µM | – | 0.54 | 62 | 0 (0) %
c1ccc(CCOc2ccccc2-c2c[nH]nn2)cc1 [Compound 26, 4–(2-Phenethoxyphenyl)-1,2,3-triazole] | > 100 µM | 91 to 93 | – | – | –
O=C(c1ccncc1)c1cnn[nH]1 [Compound 122, Pyridin-4-yl(1H-1,2,3-triazol-5-yl)methanone] | 1200 µM | 221 to 223 | – | – | –
Oc1cccc(O)c1-c1cnn[nH]1 [Compound 44, 2-(1H-1,2,3-triazol-5-yl)benzene-1,3-diol] | 13 µM | 257 to 259 | 0.51 | – | –
O=C(c1ccsc1)c1cnn[nH]1 [Compound 117, Thiophen-3-yl(1H-1,2,3-triazol-5-yl)methanone] | 67 µM and 68 µM | – | 0.47 | 23 | 0 (0) %
Cc1ccc(O)c(-c2cnn[nH]2)c1 [Compound 35, 4-Methyl-2-(1H-1,2,3-triazol-5-yl)phenol] | 0.55 µM | 160 to 162 | 0.66 | – | –
Brc1ccc(Nc2c[nH]nn2)cc1 [Compound 78, N-(4-Bromophenyl)-1,2,3-triazol-4-amine, reference compound] | 52 µM | – | 0.45 | 97 | 0 (0) %
Oc1ccc(F)cc1-c1cnn[nH]1 [Compound 34, 4-Fluoro-2-(1H-1,2,3-triazol-5-yl)phenol] | 0.14 µM | 186 to 188 | 0.72 | – | –
Clc1ccc(-c2c[nH]nn2)c(Cl)c1 [Compound 48, 4–(2,4-Dichlorophenyl)-1,2,3-triazole] | 31 µM | – | 0.47 | 63 | 0 (0) %
O=C(c1ccc(Cl)cc1)c1cnn[nH]1 [Compound 102, (4-Chlorophenyl)(1H-1,2,3-triazol-5-yl)methanone] | 31 µM | – | 0.44 | 37 | 0 (0) %
c1ccc(CCNc2ccccc2-c2cnn[nH]2)cc1 [Compound 28] | > 250 µM | 129 to 132 | – | – | –

SMILES | IC50 [1] | melting point [°C] | LE [kcal/mol/HA] [1] [kcal/mol/HA] | inhibition at 200 µM [2] [%] | Tox. [%] [3]
COc1ccc(C(=O)c2cnn[nH]2)cc1 [Compound 105, (4-Methoxyphenyl)(1H-1,2,3-triazol-5-yl)methanone] | 200 µM | – | 0.34 | 22 | 0 (0) %
O=C(c1cnn[nH]1)c1ccccc1O [Compound 106, (2-Hydroxyphenyl)(1H-1,2,3-triazol-5-yl)methanone] | 125 µM and 130 µM | – | 0.38 | 12 | 0 (0) %
O=C(c1cnn[nH]1)c1ccc(Cl)cc1O [Compound 112, (4-Chloro-2-hydroxyphenyl)(1H-1,2,3-triazol-5-yl)methanone] | 11 µM | – | 0.45 | 32 | 0 (0) %
Nc1cccc(N)c1-c1nc[nH]n1 [Compound 142, 2-(1H-1,2,4-triazol-3-yl)benzene-1,3-diamine] | 31 µM | – | 0.47 | 56 | 11 (0.4) %
O=C(c1cccnc1)c1cnn[nH]1 [Compound 121, Pyridin-3-yl(1H-1,2,3-triazol-5-yl)methanone] | 650 µM | – | 0.33 | 3.9 | 0 (0) %
OC(COc1ccccc1-c1cnn[nH]1)c1ccccc1 (centres unmarked) [Compound 27, 2–(2-(1H-1,2,3-triazol-5-yl)phenoxy)-1-phenylethan-1-ol] | > 500 µM | 153 to 155 | – | – | –
CCc1ccc(O)c(-c2cnn[nH]2)c1 [Compound 36, 4-Ethyl-2-(1H-1,2,3-triazol-5-yl)phenol] | 0.25 µM | 71 to 73 | 0.64 | – | –
O=C(c1ccc(Br)cc1)c1cnn[nH]1 [Compound 109, (4-Bromophenyl)(1H-1,2,3-triazol-5-yl)methanone] | 13 µM | – | 0.48 | 55 | 0 (0) %
Cc1[nH]nnc1-c1cc(Cl)ccc1O [Compound 68, 4-Chloro-2–(5-methyl-1,2,3-triazol-4-yl)phenol] | 220 µM | 149 to 151 | 0.36 | – | –
COc1ccccc1C(=O)c1cnn[nH]1 [Compound 103, (2-Methoxyphenyl)(1H-1,2,3-triazol-5-yl)methanone] | > 1000 µM | – | – | – | –
CC(=O)Nc1ccc(Cl)cc1-c1nc[nH]n1 [Compound 146, N-(4-Chloro-2-(1H-1,2,4-triazol-3-yl)phenyl)acetamide] | 425 µM and 420 µM | – | 0.29 | 89 | 0 (0) %
O=C(c1cscn1)c1cnn[nH]1 [Compound 118, Thiazol-4-yl(1H-1,2,3-triazol-5-yl)methanone] | 81 µM and 82 µM | – | 0.46 | 17 | 0 (0) %
O=C(c1ccccc1)c1cnn[nH]1 [Compound 99, Phenyl(1H-1,2,3-triazol-5-yl)methanone] | 430 µM | – | 0.35 | – | –
O=C(c1ccc(F)cc1)c1cnn[nH]1 [Compound 110, (4-Fluorophenyl)(1H-1,2,3-triazol-5-yl)methanone] | 185 µM and 190 µM | – | 0.36 | 12 | 0 (0) %
Clc1cc(Cl)cc(-c2c[nH]nn2)c1 [Compound 50, 4–(3,5-Dichlorophenyl)-1,2,3-triazole] | 58 µM | – | 0.44 | – | –
O=C(c1ccoc1)c1cnn[nH]1 [Compound 115, Furan-3-yl(1H-1,2,3-triazol-5-yl)methanone] | 16 µM | – | 0.55 | 73 | 0 (0) %
